Read-outs that look alike come from different tables or passages of the source.
Experiments:
rat NHE-3 = target: T1, rat NHE-3 (Rattus norvegicus, UniProt P26433); experiment: Cell-based assay of NHE-3 activity (Pharmacological Test Example 1); details: for IC50: read-out: rat NHE-3 Average pIC50 (converted)
T1 construct: expressed in transfected cells; host or cells: Opossum kidney (OK) cells (ATCC), electroporated
Method: Rat NHE-3-mediated Na^+-dependent H^+ antiport was measured using a modification of the pH sensitive dye method originally reported by Tsien (Proc. Natl. Acad. Sci. USA. (1984) 81(23): 7436-7440). Opossum kidney (OK) cells were obtained from the ATCC and propagated per their instructions. The rat NHE-3 gene was introduced into OK cells via electroporation, seeded into 96 well plates and grown overnight. Medium was aspirated from the wells, cells were washed twice with NaCl-HEPES buffer (100 mM NaCl, 50 mM HEPES, 10 mM glucose, 5 mM KCl, 2 mM CaCl2, 1 mM MgCl2, pH 7.4), then incubated for 30 min at room temperature with NH4Cl-HEPES buffer (20 mM NH4Cl, 80 mM NaCl, 50 mM HEPES, 5 mM KCl, 2 mM CaCl2), 1 mM MgCl2, pH 7.4) containing 5 uM BCECF-AM (Invitrogen). Cells were washed twice with Ammonium free, Nat-free HEPES (100 mM choline, 50 mM HEPES, 10 mM glucose, 5 mM KCl, 2 mM CaCl2), 1 mM MgCl2, pH 7.4) and incubated in the same buffer for 10 minutes at room temperature to lower intracellular pH. […] Initial rates were plotted as the average 3-6 replicates, and pIC50 values were estimated using GraphPad Prism.

[1] = Determination of compound Cmax and AUC; format: in vivo; details: rat; Sprague-Dawley rats, oral gavage, serum 0.5-4 h; actual oral dose (mg/kg) given
Method: Sprague-Dawley rats were orally gavaged with test article (2.5 mg/kg) and serum was collected at 0.5, 1, 2 and 4 h. Serum samples were treated with acetonitrile, precipitated proteins removed by centrifugation and supernatants analyzed by LC/MS/MS and compared against a standard curve to determine compound concentration. All compounds were orally dosed at the dosage shown, and pharmacokinetic parameters determined as described in the text.

[2] = OK cells expressing rat NHE-3, 0-30 uM test compound, 5 uM EIPA

T1 sequence (P26433 29-831): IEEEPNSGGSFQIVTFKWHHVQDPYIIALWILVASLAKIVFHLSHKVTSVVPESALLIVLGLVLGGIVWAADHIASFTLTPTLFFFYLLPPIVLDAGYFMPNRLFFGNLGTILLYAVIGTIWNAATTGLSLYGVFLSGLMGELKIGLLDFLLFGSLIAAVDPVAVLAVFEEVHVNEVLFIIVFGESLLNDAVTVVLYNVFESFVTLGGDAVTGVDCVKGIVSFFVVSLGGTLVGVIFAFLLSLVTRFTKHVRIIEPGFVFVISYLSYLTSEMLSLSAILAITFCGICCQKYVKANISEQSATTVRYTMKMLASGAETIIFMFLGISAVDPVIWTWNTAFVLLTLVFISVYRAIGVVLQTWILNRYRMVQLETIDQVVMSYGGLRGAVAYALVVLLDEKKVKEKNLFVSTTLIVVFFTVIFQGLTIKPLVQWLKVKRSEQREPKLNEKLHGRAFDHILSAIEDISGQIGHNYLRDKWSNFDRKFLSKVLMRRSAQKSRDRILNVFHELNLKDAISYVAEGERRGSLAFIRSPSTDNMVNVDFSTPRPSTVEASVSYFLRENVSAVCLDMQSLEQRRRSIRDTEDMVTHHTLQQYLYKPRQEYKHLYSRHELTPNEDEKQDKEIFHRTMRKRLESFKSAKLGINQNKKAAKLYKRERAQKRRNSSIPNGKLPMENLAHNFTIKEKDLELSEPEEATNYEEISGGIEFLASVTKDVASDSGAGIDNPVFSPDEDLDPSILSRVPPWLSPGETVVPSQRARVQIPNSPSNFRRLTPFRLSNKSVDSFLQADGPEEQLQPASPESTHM

Row | rat NHE-3 Average pIC50 (rat NHE-3; [2]) | AUC [1] | Cmax [1] | IC50 (rat NHE-3; [2]) | Structure (SMILES) | rat NHE-3 Average pIC50 (rat NHE-3)
1 | 6 to 7 | < 3 ng·h/mL | < 2.3 ng/mL | – | C/C(=C\c1cc(F)c(Oc2ccc(S(=O)(=O)NCCOCCOCCOCCOCCOCCOCCN)cc2)c(F)c1)C(=O)N=C(N)N [Example 211, (E)-3-(4-(4-(N-(20-amino-3,6,9,12,15,18-hexaoxaicosyl)sulfamoyl)phenoxy)-3,5-difluorophenyl)-N-(diaminomethylene)-2-methylacrylamide] | –
2 | – | < 8.3 ng·h/mL | < 4 ng/mL | < 100 nM | CN1Cc2c(Cl)cc(Cl)cc2C(c2cccc(S(=O)(=O)NCCOCCOCCOCCNC(=O)c3ccc(C(=O)NCCOCCOCCOCCNS(=O)(=O)c4cccc(C5CN(C)Cc6c(Cl)cc(Cl)cc65)c4)cc3)c2)C1 (stereo not drawn) [Example 216, N1,N4-bis(2-(2-(2-(2-(3-(6,8-dichloro-2-methyl-1,2,3,4-tetrahydroisoquinolin-4-yl)phenylsulfonamido)ethoxy)ethoxy)ethoxy)ethyl)terephthalamide] | –
3 | 6 to 7 | < 5 ng·h/mL | < 5 ng/mL | – | CN1Cc2c(Cl)cc(Cl)cc2C(c2cccc(S(=O)(=O)NCCOCCOCCOCCNC(=O)CN(CC(=O)NCCOCCOCCOCCNS(=O)(=O)c3cccc(C4CN(C)Cc5c(Cl)cc(Cl)cc54)c3)CC(=O)NCCOCCOCCOCCNS(=O)(=O)c3cccc(C4CN(C)Cc5c(Cl)cc(Cl)cc54)c3)c2)C1 (stereo not drawn) [Example 213, 2,2′,2″-nitrilotris(N-(2-(2-(2-(2-(3-(6,8-dichloro-2-methyl-1,2,3,4-tetrahydroisoquinolin-4-yl)phenylsulfonamido)ethoxy)ethoxy)ethoxy)ethyl)acetamide)] | –
4 | 6 to 7 | < 5 ng·h/mL | < 5 ng/mL | – | CN1Cc2c(Cl)cc(Cl)cc2C(c2cccc(S(=O)(=O)NCCOCCOCCOCCNC(=O)c3cccc(C(=O)NCCOCCOCCOCCNS(=O)(=O)c4cccc(C5CN(C)Cc6c(Cl)cc(Cl)cc65)c4)c3)c2)C1 (stereo not drawn) [Example 228, N1,N3-bis(2-(2-(2-(2-(3-(6,8-dichloro-2-methyl-1,2,3,4-tetrahydroisoquinolin-4-yl)phenylsulfonamido)ethoxy)ethoxy)ethoxy)-ethyl)isophthalamide] | –
5 | >7 | < 2 ng·h/mL | < 2 ng/mL | – | CN1Cc2c(Cl)cc(Cl)cc2C(c2cccc(S(=O)(=O)NCCOCCOCCOCCNC(=O)c3cc(C(=O)NCCOCCOCCOCCNS(=O)(=O)c4cccc(C5CN(C)Cc6c(Cl)cc(Cl)cc65)c4)cc(C(=O)NCCOCCOCCOCCNS(=O)(=O)c4cccc(C5CN(C)Cc6c(Cl)cc(Cl)cc65)c4)c3)c2)C1 (stereo not drawn) [Example 215, N1,N3,N5-tris(2-(2-(2-(2-(3-(6,8-dichloro-2-methyl-1,2,3,4-tetrahydroisoquinolin-4-yl)phenylsulfonamido)ethoxy)ethoxy)ethoxy)ethyl)benzene-1,3,5-tricarboxamide] | –
6 | – | < 4.4 ng·h/mL | < 2.7 ng/mL | < 100 nM | C/C(=C\c1cc(F)c(Oc2ccc(S(=O)(=O)NCCOCCOCCOCCNC(=O)[C@H](O)[C@@H](O)C(=O)NCCOCCOCCOCCNS(=O)(=O)c3ccc(Oc4c(F)cc(/C=C(\C)C(=O)N=C(N)N)cc4F)cc3)cc2)c(F)c1)C(=O)N=C(N)N [Example 212, (2R,3R)—N1,N4-bis(2-(2-(2-(2-(4-(4-((E)-3-(diaminomethyleneamino)-2-methyl-3-oxoprop-1-enyl)-2,6-difluorophenoxy)phenylsulfonamido)ethoxy)ethoxy)ethoxy)ethyl)-2,3-dihydroxysuccinamide] | –
7 | 6 to 7 | < 10 ng·h/mL | < 10 ng/mL | – | CN1Cc2c(Cl)cc(Cl)cc2C(c2cccc(S(=O)(=O)NCCOCCOCCOCCOCCOCCOCCOCCOCCOCCOCCNC(=O)CCOCCOCCOCCOCCOCCOCCOCCOCCOCCC(=O)NCCOCCOCCOCCOCCOCCOCCOCCOCCOCCOCCNS(=O)(=O)c3cccc(C4CN(C)Cc5c(Cl)cc(Cl)cc54)c3)c2)C1 (stereo not drawn) [Example 217, N1,N31-bis(32-(3-(6,8-dichloro-2-methyl-1,2,3,4-tetrahydroisoquinolin-4-yl)phenylsulfonamido)-3,6,9,12,15,18,21,24,27,30-decaoxadotriacontyl)-4,7,10,13,16,19,22,25,28-nonaoxahentriacontane-1,31-diamide] | –
8 | – | < 5.3 ng·h/mL | < 3.5 ng/mL | 100 to 1000 nM | CN1Cc2c(Cl)cc(Cl)cc2[C@H](c2ccc(S(=O)(=O)NCCOCCOCCOCCNC(=O)C(O)C(O)C(=O)NCCOCCOCCOCCNS(=O)(=O)c3ccc([C@@H]4CN(C)Cc5c(Cl)cc(Cl)cc54)cc3)cc2)C1 (single isomer, unassigned) [Example 225, N1,N4-bis(2-(2-(2-(2-(4-((S or R)-6,8-dichloro-2-methyl-1,2,3,4-tetrahydroisoquinolin-4-yl)phenylsulfonamido)ethoxy)ethoxy)ethoxy)ethyl)-2,3-dihydroxysuccinamide] | –

The remaining lines, values behind:

Row | Structure (SMILES) | rat NHE-3 Average pIC50 (rat NHE-3; [2]) | AUC [1] | Cmax [1] | IC50 (rat NHE-3; [2]) | rat NHE-3 Average pIC50 (rat NHE-3)
9 | CN1Cc2c(Cl)cc(Cl)cc2C(c2ccc(S(=O)(=O)NCCOCCOCCOCCNC(=O)c3ccc(C(=O)NCCOCCOCCOCCNS(=O)(=O)c4ccc(C5CN(C)Cc6c(Cl)cc(Cl)cc65)cc4)cc3)cc2)C1 (stereo not drawn) [Example 233, N1,N4-bis(2-(2-(2-(2-(4-(6,8-dichloro-2-methyl-1,2,3,4-tetrahydroisoquinolin-4-yl)phenylsulfonamido)ethoxy)ethoxy)ethoxy)ethyl)terephthalamide] | – | < 6.8 ng·h/mL | < 2.6 ng/mL | – | <5.0
10 | CN1Cc2c(Cl)cc(Cl)cc2C(c2ccc(S(=O)(=O)NCCOCCOCCNC(=O)C(O)C(O)C(=O)NCCOCCOCCNS(=O)(=O)c3ccc(C4CN(C)Cc5c(Cl)cc(Cl)cc54)cc3)cc2)C1 (stereo not drawn) [Example 205, N1,N4-bis(2-(2-(2-(4-(6,8-dichloro-2-methyl-1,2,3,4-tetrahydroisoquinolin-4-yl)phenylsulfonamido)ethoxy)ethoxy)ethyl)-2,3-dihydroxysuccinamide] | >7 | < 2 ng·h/mL | < 2 ng/mL | – | –
11 | CN1Cc2c(Cl)cc(Cl)cc2C(c2ccc(S(=O)(=O)NCC(=O)NCC(=O)NCC(=O)NCCCCNC(=O)CNC(=O)CNC(=O)CNS(=O)(=O)c3ccc(C4CN(C)Cc5c(Cl)cc(Cl)cc54)cc3)cc2)C1 (stereo not drawn) [Example 204, N,N′-(butane-1,4-diyl)bis(2-(2-(2-(4-(6,8-dichloro-2-methyl-1,2,3,4-tetrahydroisoquinolin-4-yl)phenylsulfonamido)acetamido)acetamido)acetamide)] | >7 | < 2 ng·h/mL | < 2 ng/mL | – | –
12 | CN1Cc2c(Cl)cc(Cl)cc2C(c2cccc(S(=O)(=O)NCCOCCOCCOCCNC(=O)c3ccccc3C(=O)NCCOCCOCCOCCNS(=O)(=O)c3cccc(C4CN(C)Cc5c(Cl)cc(Cl)cc54)c3)c2)C1 (stereo not drawn) [Example 230, N1,N2-bis(2-(2-(2-(2-(3-(6,8-dichloro-2-methyl-1,2,3,4-tetrahydroisoquinolin-4-yl)phenylsulfonamido)ethoxy)ethoxy)ethoxy)-ethyl)phthalamide] | – | < 5 ng·h/mL | < 5 ng/mL | – | >7
13 | CN1Cc2c(Cl)cc(Cl)cc2C(c2ccc(S(=O)(=O)NCCOCCOCCNC(=O)NCCOCCOCCNS(=O)(=O)c3ccc(C4CN(C)Cc5c(Cl)cc(Cl)cc54)cc3)cc2)C1 (stereo not drawn) [Example 232, N,N′-(10-oxo-3,6,14,17-tetraoxa-9,11-diazanonadecane-1,19-diyl)bis(4-(6,8-dichloro-2-methyl-1,2,3,4-tetrahydroisoquinolin-4-yl)benzenesulfonamide)] | – | < 2 ng·h/mL | < 2 ng/mL | – | <5.0
14 | CN1Cc2c(Cl)cc(Cl)cc2C(c2ccc(S(=O)(=O)NCCOCCOCCNC(=O)c3ccc(C(=O)NCCOCCOCCNS(=O)(=O)c4ccc(C5CN(C)Cc6c(Cl)cc(Cl)cc65)cc4)cc3)cc2)C1 (stereo not drawn) [Example 231, N1,N4-bis(2-(2-(2-(4-(6,8-dichloro-2-methyl-1,2,3,4-tetrahydroisoquinolin-4-yl)phenylsulfonamido)ethoxy)ethoxy)ethyl)terephthalamide] | – | < 3 ng·h/mL | < 2.5 ng/mL | – | <5.0
15 | NC(N)=NCCCN1CCN(c2cccc(-c3nc(N=C(N)N)nc4ccc(Cl)cc34)c2)CC1 [Example 67, 2-(4-(3-(4-(3-guanidinopropyl)piperazin-1-yl)phenyl)-6-chloroquinazolin-2-yl)guanidine] | 6 to 7 | – | – | – | –
16 | CN1Cc2c(Cl)cc(Cl)cc2C(c2cccc(S(=O)(=O)NCCOCCOCCNC(=O)C(C)(C)C(=O)NCCOCCOCCNS(=O)(=O)c3cccc(C4CN(C)Cc5c(Cl)cc(Cl)cc54)c3)c2)C1 (stereo not drawn) [Example 196, N1,N3-bis(2-(2-(2-(3-(6,8-dichloro-2-methyl-1,2,3,4-tetrahydroisoquinolin-4-yl)phenylsulfonamido)ethoxy)ethoxy)ethyl)-2,2-dimethylmalonamide] | 5 to 6 | – | – | – | –
17 | N=C(N)N1CCN(c2ccc(-c3nc(N=C(N)N)nc4ccc(Cl)cc34)cc2)CC1 [Example 66, 4-(4-(6-chloro-2-(diaminomethyleneamino)quinazolin-4-yl)phenyl)piperazine-1-carboximidamide] | 6 to 7 | – | – | – | –

From patent US20190374533A1, “COMPOUNDS AND METHODS FOR INHIBITING NHE-MEDIATED ANTIPORT IN THE TREATMENT OF DISORDERS ASSOCIATED WITH FLUID RETENTION OR SALT OVERLOAD AND GASTROINTESTINAL TRACT DISORDERS” (Ardelyx, Inc., priority 2008, published 2019)
